Measured values taken from patent US9523108B2, “Thermostable β-xylosidase” (HONDA MOTOR CO., LTD., priority 2014, dated 2016).

Columns and labels:
[1] = tested on: thermostable 1-xylosidase having an optimum temperature of 95° C. (Non-Patent Document 7, Shi et al., 2013); details: PNPX as substrate; cited from earlier work
[2] = tested on: thermostable β-xylosidase OJ1M-273-1 (GH3 family), SEQ ID NO: 2, from hot spring soil metagenome OJ1, expressed in E. coli, purified; assay: Kinetics of PNP substrate hydrolysis by OJ1M-273-1 β-xylosidase; type: biochemical; details: 105° C., pH 5 acetate buffer; for Vmax (maximum initial rate of hydrolysis) / Km: 10 min, enzyme diluted to 0.01 mg/mL, Michaelis-Menten fit; for Km: read-out: Km (Michaelis constant); for Kcat/Km (catalytic efficiency): calculated from fitted Vmax and Km
Method: The gene recombinant E. coli homogeneous supernatant was loaded onto an ion exchange column HiTrap Q HP (manufactured by GE Healthcare, Inc.) equilibrated with a 50 mM Tris-HCl buffer (pH 8.0), and a medium-high pressure liquid chromatography system AKTA design (manufactured by GE Healthcare, Inc.) was used to fractionate proteins with a concentration gradient of 0 to 50% in a 50 mM Tris-HCl buffer (pH 8.0) containing 1 M of NaCl. […] The fractions with β-xylosidase activity following the buffer exchange were loaded onto a hydrophobic interaction separation column HiTrap Phenyl HP (manufactured by GE Healthcare, Inc.) equilibrated with the same buffer solution, and the proteins were fractionated with a concentration gradient of 0 to 100% in a 50 mM Tris-HCl buffer (pH 8.0). […] The concentrated sample was loaded onto a gel filtration column Hiload 26/60 superdex 200 pg (manufactured by GE Healthcare, Inc.) equilibrated with a 50 mM Tris-HCl buffer (pH 8.0) containing 150 mM of NaCl, and was fractionated by passing a volume of the same buffer equivalent to 1 to 1.5 times the column volume through the column at a flow rate of 2 to 3 mL/min.
PNPX was used as the substrate for measuring the β-xylosidase activity. A solution prepared by dissolving PNPX (manufactured by Sigma-Aldrich Co. LLC.) in water to obtain a prescribed final concentration was used as the substrate solution. The PNPX substrate solutions used in the experiments described below all used aqueous solutions of PNPX prepared by the above method. In the measurements, a solution prepared by diluting the purified enzyme obtained in section <6> above with a 0.05 M Tris-HCl buffer (pH 8.0) to obtain a concentration of 0.1 to 0.01 mg/mL was used.
The reaction solution was composed of 6 μL of the diluted purified enzyme, 294 μL of purified water, 150 μL of a 200 mM acetate buffer (pH 5), and 150 μL of a 20 mM PNPX aqueous solution.
The reaction was performed at 60° C. to 115° C. for 10 minutes using a ReactiTherm (manufactured by Thermo Fisher Scientific Inc.). A glass vial with a volume of 1.5 mL was used as the reaction vessel, and the inside of the vial was pre-coated with a 1.5% by mass aqueous solution of BSA in order to suppress enzyme protein adsorption. In all measurements, a mixed solution prepared by replacing the gene recombinant E. coli homogenous supernatant or the purified enzyme with a 50 mM Tris-HCl buffer (pH 8.0) and then reacting the solution under the same conditions was used as a control. Further, the mixed solution containing the enzyme (the gene recombinant E. coli homogenous supernatant or the purified enzyme), the purified water and the buffer was held at the reaction temperature for five minutes (pre-incubation), the substrate solution was then added, and the reaction was performed. In each case, following completion of the 10-minute reaction, the reaction was halted by adding a 0.2 M Na2CO3 solution to the reaction solution in a volume equal to that of the mixed solution, and the resulting mixture was then centrifuged for 5 minutes to obtain a supernatant. The amount of p-nitrophenol in the supernatant was determined by measuring the absorbance at 420 nm using a spectrophotometer, calculating the amount of p-nitrophenol in the supernatant using a calibration curve prepared with p-nitrophenol, and then determining the amount of p-nitrophenol produced by the enzymatic hydrolysis on the basis of the difference from the control. The enzymatic activity for producing 1 μmol of p-nitrophenol per minute was defined as 1 U, and the value obtained by dividing this activity by the amount of protein was defined as the specific activity (U/mg). Each measurement was performed for three independent experiments, and a mean value and a standard error were determined.
The maximum initial rate (Vmax) of hydrolysis, the Michaelis constant (Km) and the catalytic efficiency (Kcat/Km) were investigated for PNP substrate hydrolysis by OJ1M-273-1. […]

Compound | catalytic efficiency Kcat/Km [1] | Vmax (maximum initial rate of hydrolysis) [2] | Km [2] | Kcat/Km (catalytic efficiency) [2]
O=[N+]([O-])c1ccc(O[C@@H]2OC[C@@H](O)[C@H](O)[C@H]2O)cc1 [PNPX, p-nitrophenyl-β-D-xylopyranoside] | 1173.4 mM⁻¹ s⁻¹ | 86.0 U/mg | 0.44 mM | 259.8 mM⁻¹ s⁻¹
O=[N+]([O-])c1ccc(O[C@@H]2O[C@@H](CO)[C@H](O)[C@H]2O)cc1 [PNPAF, p-nitrophenyl-α-L-arabinofuranoside] |  | 914.5 U/mg | 13.7 mM | 87.7 mM⁻¹ s⁻¹
O=[N+]([O-])c1ccc(O[C@@H]2OC[C@H](O)[C@H](O)[C@H]2O)cc1 [PNPAP, p-nitrophenyl-α-L-arabinopyranoside] |  | 838.5 U/mg | 20.6 mM | 53.6 mM⁻¹ s⁻¹
